Patent US7199219B1, “Polypeptides derived from vitamin D nuclear receptor, and their uses in particular for screening vitamin D analogues” (Centre National de la Recherche Scientifique, priority 1999, dated 2007)

T1: VDR (Bos taurus, UniProt Q28037)
T1 sequence (Q28037 1-426): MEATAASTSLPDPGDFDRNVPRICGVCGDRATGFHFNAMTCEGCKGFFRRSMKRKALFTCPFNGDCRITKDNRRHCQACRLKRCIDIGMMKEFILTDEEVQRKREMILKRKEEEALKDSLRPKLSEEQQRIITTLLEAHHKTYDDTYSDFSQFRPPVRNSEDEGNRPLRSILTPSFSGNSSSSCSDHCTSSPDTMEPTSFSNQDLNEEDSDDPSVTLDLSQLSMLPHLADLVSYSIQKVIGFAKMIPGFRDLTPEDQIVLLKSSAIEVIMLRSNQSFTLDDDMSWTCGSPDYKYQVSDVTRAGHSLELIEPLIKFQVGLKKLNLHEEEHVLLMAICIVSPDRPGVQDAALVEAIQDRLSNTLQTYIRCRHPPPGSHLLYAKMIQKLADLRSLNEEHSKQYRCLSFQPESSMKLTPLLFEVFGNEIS

B1: mutant VDR: polypeptide derived from human VDR in which residues 1–117 and 165–215 are suppressed (protein)
chain: DSLRPKLSEEQQRIIAILLDAHHKTYDPTYSDFCQFRPPVRVNDGGGSVTLELSQLSMLPHLADLVSYSIQKVIGFAKMIPGFRDLTSEDQIVLLKSSAIEVIMLRSNESFTMDDMSWTCGNQDYKYRVSDVTKAGHSLELIEPLIKFQVGLKKLNLHEEEHVLLMAICIVSPDRPGVQDAALIEAIQDRLSNTLQTYIRCRHPPPGSHLLYAKMIQKLADLRSLNEEHSKQYRCLSFQPECSMKLTPLVLEVFGNEIS
modifications: Description of the artificial sequence polypeptide derived from the nuclear receptor of the human vitamin D
notes: polypeptide derived from human VDR in which residues 1–117 and 165–215 are suppressed

Tests used:
VDR = target: T1, VDR; details: versus 1,25(OH)2 D3; cited from earlier work
[1] = system: 17 m5-TATA-CAT reporter gene responding to GAL4; experiment: GAL4-LBD chimera transactivation, CAT reporter in transfected Cos cells; format: cell-based; details: Gal4 (1–147) fusion, Cos cells, 1,25(OH)2 D3 10^−7M
Description: b) CAT activities of the wild-type hVDR and of the mutant hVDR; these activities are indicated on the ordinate as a percentage; column 1 corresponds to the CAT activity measured in the absence of vitamin D (VD), of wild-type (wild-type) hVDR and of mutant (truncated) hVDR; column 2 corresponds to CAT activity measured in the presence of VD and in the absence of wild-type hVDR and of mutant hVDR; column 3 corresponds to CAT activity measured in the presence of wild-type hVDR and in the absence of VD and of mutant hVDR; column 4 corresponds to CAT activity measured in the presence of VD and of wild-type hVDR and in the absence of mutant hVDR; column 5 corresponds to CAT activity measured in the presence of mutant hVDR, and in the absence of VD and of wild-type hVDR; column 6 corresponds to CAT activity measured in the presence of mutant hVDR and of VD and in the absence of wild-type hVDR.
No significant change was observed between the dissociation constants of the wild-type and mutant VDRs was observed, the values being similar to that described previously for the whole receptor (Bouillon et al., 1995). […] The chimeric proteins were expressed by transfection into Cos cells, and the transactivation was measured with an appropriate reporter responding to GAL4.

| Molecule | binding affinity relative to the natural ligand (VDR) [times] | transactivation properties (CAT activity) compared with wild-type LBD [1] |
| --- | --- | --- |
| C=C1C(=CC=C2CCCC3(C)C2CCC3C(C)CCCC(C)(C)O)CC(O)C(C)C1O (stereo not drawn) [2 α-methyl 1,25(OH)2 D3] | 4 | – |
| B1 | – | comparable transactivation properties |
